Article PMC5895059, “Scaffold hopping from (5-hydroxymethyl) isophthalates to multisubstituted pyrimidines diminishes binding affinity to the C1 domain of protein kinase C” (PLoS ONE, 2018)
Where “and” joins values, the source holds several entries; their conditions need not be identical. Equal entries are not always repeated.

Biological target: PKCα (Homo sapiens, UniProt P17252)
Test: [3H]PDBu displacement, 96-well plate filtration binding assay
Details: for Displacement assay raw data (CCPM): single replicate wells; for Residual [^3H]PDBu binding to PKCα (% of control): 20 μM compound concentration, mean + SEM, n = 2–8

Row | SMILES | Displacement assay raw data (CCPM) (0,2 µM test substance) | Displacement assay raw data (CCPM) (1 µM test substance) | Displacement assay raw data (CCPM) (4 µM test substance) | Displacement assay raw data (CCPM) (10 µM test substance) | Residual [^3H]PDBu binding to PKCα (% of control) | Displacement assay raw data (CCPM) (20 µM test substance) | Displacement assay raw data (CCPM) (30 µM test substance) | Displacement of [^3H]PDBu from PKCα (in words) (concentration range of 0.2–30 μM)
1 | CCCCCCOC(=O)c1nc(CO)nc(OCCCCCC)c1C [Compound 2a, Hexyl 6-(hexyloxy)-2-(hydroxymethyl)-5-methylpyrimidine-4-carboxylate] | 7949 CCPM and 9699 CCPM and 8544 CCPM and 12898 CCPM and 11646 CCPM and 12786 CCPM | 7626 CCPM and 8685 CCPM and 9639 CCPM and 11993 CCPM and 12245 CCPM and 12903 CCPM | 7496 CCPM and 8524 CCPM and 9257 CCPM and 11421 CCPM and 11194 CCPM and 11877 CCPM | 7467 CCPM and 7915 CCPM and 7828 CCPM and 11547 CCPM and 11263 CCPM and 11635 CCPM | 85.3 ± 7.4 % of control | 6283 CCPM and 8361 CCPM and 8257 CCPM and 10077 CCPM and 11544 CCPM and 10260 CCPM | 6598 CCPM and 7105 CCPM and 7428 CCPM and 10040 CCPM and 10575 CCPM and 9972 CCPM | strongest concentration dependence
2 | CCCCCCCOC(=O)c1nc(CO)nc(OCCCCCCC)c1C [Compound 2b, Heptyl 6-(heptyloxy)-2-(hydroxymethyl)-5-methylpyrimidine-4-carboxylate] | 13052 CCPM and 11682 CCPM and 11827 CCPM and 17977 CCPM and 18315 CCPM and 17029 CCPM | 11258 CCPM and 11582 CCPM and 12305 CCPM and 17512 CCPM and 18998 CCPM and 18500 CCPM | 10048 CCPM and 11019 CCPM and 11674 CCPM and 17585 CCPM and 17180 CCPM and 19863 CCPM | 10753 CCPM and 10221 CCPM and 10149 CCPM and 14691 CCPM and 16431 CCPM and 16220 CCPM | 88.5 ± 5.7 % of control | 9620 CCPM and 9492 CCPM and 9656 CCPM and 14771 CCPM and 14660 CCPM and 15872 CCPM | 9760 CCPM and 10346 CCPM and 10712 CCPM and 16581 CCPM and 14486 CCPM and 14880 CCPM | 
3 | CCCCCCCCOC(=O)c1nc(CO)nc(OCCCCCCCC)c1C [Compound 2c, Octyl 2-(hydroxymethyl)-5-methyl-6-(octyloxy)pyrimidine-4-carboxylate] | 12223 CCPM and 10832 CCPM and 10701 CCPM and 18273 CCPM and 16005 CCPM and 17696 CCPM | 12118 CCPM and 12391 CCPM and 11284 CCPM and 18079 CCPM and 16200 CCPM and 17048 CCPM | 10666 CCPM and 10448 CCPM and 9501 CCPM and 18957 CCPM and 15769 CCPM and 16408 CCPM | 10483 CCPM and 10217 CCPM and 10554 CCPM and 15009 CCPM and 15224 CCPM and 15278 CCPM | 93.5 ± 6.5 % of control | 10634 CCPM and 9873 CCPM and 9750 CCPM and 16572 CCPM and 15241 CCPM and 16254 CCPM | 11684 CCPM and 11210 CCPM and 10063 CCPM and 15855 CCPM and 15398 CCPM and 15526 CCPM | 
4 | CCCC(CCC)COC(=O)c1nc(CO)nc(OCC(CCC)CCC)c1C [Compound 2d, 2-propylpentyl 2-(hydroxymethyl)-5-methyl-6-[(2-propylpentyl)oxy]pyrimidine-4-carboxylate] | 9740 CCPM and 9459 CCPM and 9651 CCPM and 5569 CCPM and 5686 CCPM and 5559 CCPM | 7644 CCPM and 9362 CCPM and 9109 CCPM and 5694 CCPM and 5798 CCPM and 6238 CCPM | 7518 CCPM and 9016 CCPM and 8738 CCPM and 4914 CCPM and 5158 CCPM and 5369 CCPM | 7586 CCPM and 7877 CCPM and 7985 CCPM and 4832 CCPM and 5595 CCPM and 4913 CCPM | 89.7 ± 7.1 % of control | 7408 CCPM and 8501 CCPM and 8368 CCPM and 4542 CCPM and 5847 CCPM and 5492 CCPM | 8520 CCPM and 7381 CCPM and 8758 CCPM and 5782 CCPM and 4556 CCPM and 4977 CCPM | 
5 | CCCCC(CC)OC(=O)c1nc(CO)nc(OC(CC)CCCC)c1C (centres unmarked) [Compound 2e, Heptan-3-yl 6-(heptan-3-yloxy)-2-(hydroxymethyl)-5-methylpyrimidine-4-carboxylate] | 13386 CCPM and 12773 CCPM and 11586 CCPM and 9937 CCPM and 11273 CCPM and 11368 CCPM | 12486 CCPM and 13520 CCPM and 13561 CCPM and 10438 CCPM and 10771 CCPM and 10331 CCPM | 13244 CCPM and 12192 CCPM and 13129 CCPM and 11362 CCPM and 12373 CCPM and 12221 CCPM | 12416 CCPM and 12269 CCPM and 12041 CCPM and 10898 CCPM and 11193 CCPM and 10978 CCPM | 91.4 ± 2.3 % of control | 11475 CCPM and 10474 CCPM and 10581 CCPM and 9805 CCPM and 9920 CCPM and 10092 CCPM | 11584 CCPM and 10772 CCPM and 11119 CCPM and 8897 CCPM and 9568 CCPM and 9434 CCPM | 
6 | Cc1c(OCc2cccc(C(F)(F)F)c2)nc(CO)nc1C(=O)OCc1cccc(C(F)(F)F)c1 [Compound 2f, 3-(trifluoromethyl)benzyl 2-(hydroxymethyl)-5-methyl-6-[[3-(trifluoromethyl)benzyl]oxy]pyrimidine-4-carboxylate] | 5892 CCPM and 5535 CCPM and 6214 CCPM and 6493 CCPM and 5681 CCPM and 5606 CCPM | 5789 CCPM and 5065 CCPM and 5775 CCPM and 6129 CCPM and 5689 CCPM | 5908 CCPM and 5351 CCPM and 5505 CCPM and 4754 CCPM and 5387 CCPM and 5468 CCPM | 5951 CCPM and 5634 CCPM and 5541 CCPM and 5247 CCPM and 5397 CCPM and 4899 CCPM | 90.5 ± 6.0 % of control | 5509 CCPM and 4316 CCPM and 5047 CCPM and 4822 CCPM and 4931 CCPM and 4834 CCPM | 5249 CCPM and 4747 CCPM and 5046 CCPM and 4792 CCPM and 4631 CCPM and 4673 CCPM | 
7 | COC(=O)c1nc(CO)nc(OCc2cccc(C(F)(F)F)c2)c1C [Compound 2g, Methyl 2-(hydroxymethyl)-5-methyl-6-[[3-(trifluoromethyl)benzyl]oxy]pyrimidine-4-carboxylate] | 5444 CCPM and 5572 CCPM and 6419 CCPM and 5626 CCPM and 5372 CCPM and 5082 CCPM | 5331 CCPM and 5641 CCPM and 6328 CCPM and 5502 CCPM and 5786 CCPM and 5467 CCPM | 5858 CCPM and 5969 CCPM and 5764 CCPM and 5341 CCPM and 5546 CCPM and 5465 CCPM | 6071 CCPM and 6111 CCPM and 6173 CCPM and 5469 CCPM and 6077 CCPM and 5316 CCPM | 106.7 ± 5.0 % of control | 5096 CCPM and 6099 CCPM and 5970 CCPM and 5477 CCPM and 5384 CCPM and 5474 CCPM | 5416 CCPM and 5047 CCPM and 5574 CCPM and 5225 CCPM and 5482 CCPM and 5411 CCPM | 
8 | CCCCC(CC)OC(=O)c1nc(CO)nc(OCc2cccc(C(F)(F)F)c2)c1C (centres unmarked) [Compound 2h, Heptan-3-yl 2-(hydroxymethyl)-5-methyl-6-[[3-(trifluoromethyl)benzyl]oxy]pyrimidine-4-carboxylate] | 5892 CCPM and 5535 CCPM and 6214 CCPM and 5732 CCPM and 5572 CCPM and 5002 CCPM | 5789 CCPM and 5065 CCPM and 5775 CCPM and 5836 CCPM and 5313 CCPM and 4792 CCPM | 5908 CCPM and 5351 CCPM and 5505 CCPM and 5457 CCPM and 5305 CCPM and 4736 CCPM | 5951 CCPM and 5634 CCPM and 5541 CCPM and 4751 CCPM and 4877 CCPM and 4485 CCPM | 86.8 ± 7.8 % of control | 5509 CCPM and 4316 CCPM and 5047 CCPM and 4061 CCPM and 4136 CCPM and 4187 CCPM | 5249 CCPM and 4747 CCPM and 5046 CCPM and 3715 CCPM and 4141 CCPM and 3683 CCPM | 
9 | CCCCCCCOc1nc(CO)nc(C(=O)OC(CC)CCCC)c1C (centres unmarked) [Compound 2i, Heptan-3-yl 6-(heptyloxy)-2-(hydroxymethyl)-5-methylpyrimidine-4-carboxylate] | 4873 CCPM and 4870 CCPM and 5222 CCPM and 7916 CCPM and 8966 CCPM and 8933 CCPM | 5191 CCPM and 5217 CCPM and 5062 CCPM and 8605 CCPM and 8987 CCPM and 9227 CCPM | 5070 CCPM and 5217 CCPM and 5699 CCPM and 8553 CCPM and 8476 CCPM and 8686 CCPM | 4806 CCPM and 5282 CCPM and 4681 CCPM and 7955 CCPM and 8861 CCPM and 7525 CCPM | 87.2 ± 1.7 % of control | 4663 CCPM and 4781 CCPM and 4927 CCPM and 7593 CCPM and 7766 CCPM and 7574 CCPM | 4959 CCPM and 5003 CCPM and 5038 CCPM and 7682 CCPM and 7603 CCPM and 7191 CCPM | 
10 | CCCCCCCOc1nc(CO)nc(C(=O)OCc2cccc(C(F)(F)F)c2)c1C [Compound 2j, 3-(trifluoromethyl)benzyl 6-(heptyloxy)-2-(hydroxymethyl)-5-methylpyrimidine-4-carboxylate] | 5070 CCPM and 6403 CCPM and 6171 CCPM and 8628 CCPM and 8277 CCPM and 7942 CCPM | 5379 CCPM and 6351 CCPM and 6353 CCPM and 8453 CCPM and 7986 CCPM and 7710 CCPM | 5347 CCPM and 4876 CCPM and 6039 CCPM and 8146 CCPM and 8038 CCPM and 8545 CCPM | 4978 CCPM and 4910 CCPM and 4651 CCPM and 7817 CCPM and 7871 CCPM and 7636 CCPM | 87.2 ± 6.0 % of control | 5492 CCPM and 5042 CCPM and 4393 CCPM and 7145 CCPM and 7596 CCPM and 7314 CCPM | 4511 CCPM and 5233 CCPM and 4215 CCPM and 6957 CCPM and 7148 CCPM and 7222 CCPM | 
